Assay results reported in ChEMBL document CHEMBL5634112, “Synthesis and biological evaluation of fluoroquinolones containing a pyridoxine derivatives moiety” (Eur J Med Chem, 2023).
Converted amounts (≈) assume the structure as drawn. The source made the active and inactive calls. The rule behind the calls is not given here.

Experiments:
[1] = Cytotoxicity against human HSF assessed as reduction in cell viability incubated for 72 hrs by MTT assay; type: toxicity, cell-based; settings: HSF cells
Pseudomonas aeruginosa [2] = assay: Antibacterial activity against Pseudomonas aeruginosa ATCC 27853 assessed as reduction in microbial growth incubated for 24 hrs by broth microdilution method; type: functional
Bacillus subtilis = assay: Antibacterial activity against Bacillus subtilis 168 assessed as reduction in microbial growth incubated for 24 hrs by broth microdilution method; type: functional
Staphylococcus aureus [3] = assay: In vivo antibacterial activity against Staphylococcus aureus N-10 infected in Po dosed SHK mouse model of sepsis assessed as survival measured after 14 days; type: functional; settings: N-10, 336 h, time 14 day
[4] = Cytotoxicity against human MSC assessed as reduction in cell viability incubated for 72 hrs by MTT assay; type: toxicity, cell-based; settings: MSC cells
Salmonella typhimurium = assay: Antibacterial activity against Salmonella typhimurium TA100 assessed as reduction in microbial growth incubated for 24 hrs by broth microdilution method; type: functional, Salmonella enterica subsp. enterica serovar Typhimurium; settings: Salmonella enterica
[5] = Cytotoxicity against human CHL assessed as reduction in cell viability incubated for 72 hrs by MTT assay; type: toxicity, cell-based; settings: CHL cells
[6] = Toxicity in female F1 C57Bl6 x CBA mouse assessed as mortality at 125 mg/kg, po; type: organism-based; settings: in vivo
[7] = Toxicity in male F1 C57Bl6 x CBA mouse assessed as mortality at 125 mg/kg, po; type: organism-based; settings: in vivo
Staphylococcus aureus [8] = assay: Antibacterial activity against clinical isolate methicillin resistant Staphylococcus aureus 4771 assessed as reduction in microbial growth incubated for 24 hrs by broth microdilution method; type: functional
[9] = tested on: Staphylococcus epidermidis; assay: Antibacterial activity against clinical isolate Staphylococcus epidermidis assessed as reduction in microbial growth incubated for 24 hrs by broth microdilution method; type: functional
Topoisomerase IV = Topoisomerase IV (Staphylococcus aureus, UniProt P0C1S7+P0C1U9); assay: Inhibition of Staphylococcus aureus topoisomerase-IV assessed as reduction in decatenation using kinetoplast DNA as substrate incubated for 30 mins by ethidium bromide staining based agarose gel electrophoresis method; type: protein-complex assay
Cedecea davisae = assay: Antibacterial activity against clinical isolate Cedecea davisae 1813 assessed as reduction in microbial growth incubated for 24 hrs by broth microdilution method; type: functional
[10] = Toxicity in female F1 C57Bl6 x CBA mouse assessed as mortality at 1000 mg/kg, po; type: organism-based; settings: in vivo
[11] = Genotoxicity in Salmonella typhimurium TA98 by Ames test; type: toxicity; settings: salmonella enterica subsp. enterica serovar typhimurium
[12] = Genotoxicity in Salmonella typhimurium TA100 by Ames test; type: toxicity; settings: salmonella enterica subsp. enterica serovar typhimurium
Pseudomonas aeruginosa [13] = assay: Antibacterial activity against clinical isolate Pseudomonas aeruginosa NKC 17 assessed as reduction in microbial growth incubated for 24 hrs by broth microdilution method; type: functional
[14] = Toxicity in F1 C57Bl6 x CBA mouse assessed as mortality at 1000 to 2000 mg/kg, po relative to control; type: organism-based; settings: in vivo, dose 1000-2000 mg/kg
Klebsiella aerogenes = assay: Antibacterial activity against clinical isolate Enterobacter aerogenes NKC 8 assessed as reduction in microbial growth incubated for 24 hrs by broth microdilution method; type: functional
Staphylococcus aureus [15] = assay: Antibacterial activity against clinical isolate Staphylococcus aureus 1812 assessed as reduction in microbial growth incubated for 24 hrs by broth microdilution method; type: functional
[16] = tested on: Staphylococcus haemolyticus; assay: Antibacterial activity against clinical isolate Staphylococcus haemolyticus 1464 assessed as reduction in microbial growth incubated for 24 hrs by broth microdilution method; type: functional
[17] = tested on: Staphylococcus epidermidis; assay: Antibacterial activity against clinical isolate Staphylococcus epidermidis NKC 37/1 assessed as reduction in microbial growth incubated for 24 hrs by broth microdilution method; type: functional
Enterococcus faecalis = assay: Antibacterial activity against clinical isolate Enterococcus faecalis 1465 assessed as reduction in microbial growth incubated for 24 hrs by broth microdilution method; type: functional
[18] = Toxicity in po dosed female F1 C57Bl6 x CBA mouse assessed as lethal dose; type: organism-based; settings: in vivo
Klebsiella pneumoniae = assay: Antibacterial activity against clinical isolate Klebsiella pneumoniae 1678 assessed as reduction in microbial growth incubated for 24 hrs by broth microdilution method; type: functional
[19] = tested on: Staphylococcus auricularis; assay: Antibacterial activity against clinical isolate Staphylococcus auricularis NKC 7 assessed as reduction in microbial growth incubated for 24 hrs by broth microdilution method; type: functional
[20] = Toxicity in male F1 C57Bl6 x CBA mouse assessed as mortality at 1000 to 2000 mg/kg, po; type: organism-based; settings: in vivo, dose 1000-2000 mg/kg
DNA gyrase [21] = target: T1, DNA gyrase (Staphylococcus aureus, UniProt P0A0K8+P20831); assay: Inhibition of Staphylococcus aureus DNA gyrase using supercoiled pBR322 DNA as substrate incubated for 60 mins by ethidium bromide staining based agarose gel electrophoresis method; type: protein-complex assay
Escherichia coli [22] = assay: Antibacterial activity against clinical isolate Escherichia coli NKC 1 assessed as reduction in microbial growth incubated for 24 hrs by broth microdilution method; type: functional
Staphylococcus aureus [23] = assay: Antibacterial activity against methicillin sensitive Staphylococcus aureus ATCC 29213 assessed as reduction in microbial growth incubated for 24 hrs by broth microdilution method; type: functional
[24] = Toxicity in po dosed rat assessed as lethal dose; type: organism-based; settings: in vivo
[25] = Toxicity in rat assessed as kidney darkening at 2000 mg/kg, po after 14 days; type: organism-based; settings: in vivo, 336 h, time 14 day
Micrococcus luteus = assay: Antibacterial activity against clinical isolate Micrococcus luteus assessed as reduction in microbial growth incubated for 24 hrs by broth microdilution method; type: functional
DNA gyrase [26] = target: T1, DNA gyrase; assay: Inhibition of Staphylococcus aureus DNA gyrase using relaxed pBR322 DNA as substrate incubated for 30 mins by ethidium bromide staining based agarose gel electrophoresis method; type: protein-complex assay
[27] = tested on: Staphylococcus haemolyticus; assay: Antibacterial activity against clinical isolate Staphylococcus haemolyticus NKC 31/2 assessed as reduction in microbial growth incubated for 24 hrs by broth microdilution method; type: functional
[28] = Toxicity in F1 C57Bl6 x CBA mouse assessed as kidney darkening at 125 mg/kg, po after 14 days; type: organism-based; settings: in vivo, 336 h, time 14 day
[29] = Genotoxicity in Salmonella typhimurium TA102 by Ames test; type: toxicity; settings: salmonella enterica subsp. enterica serovar typhimurium
Staphylococcus aureus [30] = assay: Antibacterial activity against clinical isolate Staphylococcus aureus 4721 assessed as reduction in microbial growth incubated for 24 hrs by broth microdilution method; type: functional
[31] = Toxicity in F1 C57Bl6 x CBA mouse assessed as liver darkening at 125 mg/kg, po after 14 days; type: organism-based; settings: in vivo, 336 h, time 14 day
Escherichia coli [32] = assay: Antibacterial activity against Escherichia coli ATCC 25922 assessed as reduction in microbial growth incubated for 24 hrs by broth microdilution method; type: functional
[33] = Toxicity in rat assessed as liver darkening at 2000 mg/kg, po after 14 days; type: organism-based; settings: in vivo, 336 h, time 14 day
[34] = Toxicity in F1 C57Bl6 x CBA mouse assessed as mortality at […] 125 to 500 mg/kg, po relative to control; type: organism-based; settings: in vivo, at 125 to 500 mg/kg, dose 125-500 mg/kg
[35] = Toxicity in po dosed male F1 C57Bl6 x CBA mouse assessed as lethal dose; type: organism-based; settings: in vivo
[36] = Toxicity in male rat assessed as mortality at 2000 mg/kg, po; type: organism-based; settings: in vivo
Staphylococcus aureus [37] = assay: Potency index ratio of ciprofloxacin ED50 to test compound ED50 for invivo antibacterial activity against Staphylococcus aureus N-10 infected in Po dosed SHK mouse model of sepsis; type: functional
[38] = Toxicity in F1 C57Bl6 x CBA mouse assessed as mortality at 2000 mg/kg, po; type: organism-based; settings: in vivo
[39] = Toxicity in po dosed F1 C57Bl6 x CBA mouse assessed as lethal dose; type: organism-based; settings: in vivo
Staphylococcus aureus [40] = assay: In vivo antibacterial activity against Staphylococcus aureus N-10 infected in SHK mouse model of sepsis assessed as animal death at 2 to 4 mg/kg, po measured after 5 to 14 days; type: functional, organism-based; settings: dose 2-4 mg/kg, time 5-14 day
[41] = Toxicity in female rat assessed as mortality at 2000 mg/kg, po; type: organism-based; settings: in vivo
Staphylococcus aureus [42] = assay: In vivo antibacterial activity against Staphylococcus aureus N-10 infected in SHK mouse model of sepsis assessed as survival at 16 to 18 mg/kg, po measured after 14 days relative to control; type: functional, organism-based; settings: dose 16-18 mg/kg, time 14.0 day

`O=C(O)c1cn(C2CC2)c2cc(N3CCNCC3)c(F)cc2c1=O` [CIPROFLOXACIN] showed a CC50 at 72 h [1] of 52.8 µg/mL (≈ 159 µM), an MIC (Pseudomonas aeruginosa [2]) of 1 µg/mL and an MIC (Bacillus subtilis) of 0.5 µg/mL. For the same compound, the ED50 (Staphylococcus aureus [3]) was 11.2 mg/kg, the CC50 at 72 h [4] was 41.6 µg/mL (≈ 126 µM) and the MIC (Salmonella typhimurium) was 1 µg/mL. It also gave a CC50 at 72 h [5] of 29.3 µg/mL (≈ 88.5 µM).

With `COc1c(N2C[C@@H]3CCCN(Cc4cnc(C)c(O)c4C)[C@@H]3C2)c(F)cc2c(=O)c(C(=O)O)cn(C3CC3)c12.Cl.Cl` the Activity [6] was “Non-Toxic”, the Activity [7] was “Non-Toxic” and the MIC (Staphylococcus aureus [8]) was 0.06 µg/mL. For the same compound, the MIC [9] was 0.5 µg/mL, the IC50 (Topoisomerase IV) was 26.2 µM and the MIC (Cedecea davisae) was 0.03 µg/mL. The CC50 at 72 h [1] was 17.6 µg/mL, the Activity [10] was “Toxic” and the Activity [11] was “Non-Toxic”. The Activity [12] was “Non-Toxic”, the MIC (Pseudomonas aeruginosa [13]) was 64 µg/mL and the mortality [14] was > 80%. For the same compound, the MIC (Klebsiella aerogenes) was 16 µg/mL, the MIC (Staphylococcus aureus [15]) was 0.25 µg/mL and the MIC [16] was 0.06 µg/mL. It also gave an MIC [17] of 0.06 µg/mL, an MIC (Enterococcus faecalis) of 4 µg/mL and an MIC (Pseudomonas aeruginosa [2]) of 1 µg/mL. For the same compound, the LD50 [18] was 541 mg/kg, the MIC (Klebsiella pneumoniae) was 64 µg/mL and the MIC [19] was 0.03 µg/mL. For the same compound, the Activity [20] was “Toxic”, the IC50 (DNA gyrase [21]) was > 656 µM and the MIC (Escherichia coli [22]) was 2 µg/mL. For the same compound, the MIC (Staphylococcus aureus [23]) was 0.5 µg/mL, the LD50 [24] was > 2000 mg/kg and the MIC (Bacillus subtilis) was 0.5 µg/mL. For the same compound, the Activity [25] was “Toxic”, the MIC (Micrococcus luteus) was 0.5 µg/mL and the IC50 (DNA gyrase [26]) was 85.3 µM. For the same compound, the MIC [27] was 8 µg/mL, the Activity [28] was “Non-Toxic” and the CC50 at 72 h [4] was 12.7 µg/mL. The Activity [29] was “Non-Toxic”, the MIC (Salmonella typhimurium) was 1 µg/mL and the CC50 at 72 h [5] was 8.22 µg/mL. The MIC (Staphylococcus aureus [30]) was 0.06 µg/mL, the Activity [31] was “Non-Toxic” and the MIC (Escherichia coli [32]) was 2 µg/mL. The Activity [33] was “Toxic”, the mortality [34] was 0% and the LD50 [35] was 406 mg/kg. The Activity [36] was “Non-Toxic”.

Work on `Cc1ncc(CN2CCN(c3cc4c(cc3F)c(=O)c(C(=O)O)cn4C3CC3)CC2)c(CO)c1O.Cl` yielded an MIC (Staphylococcus aureus [8]) of 1 µg/mL, an MIC [9] of 2 µg/mL and an IC50 (Topoisomerase IV) of 397 µM. The MIC (Cedecea davisae) was 1 µg/mL, the CC50 at 72 h [1] was 34.5 µg/mL and the Activity [11] was “Non-Toxic”. For the same compound, the Activity [12] was “Non-Toxic”, the MIC (Pseudomonas aeruginosa [13]) was 16 µg/mL and the MIC (Klebsiella aerogenes) was 2 µg/mL. The MIC (Staphylococcus aureus [15]) was 1 µg/mL, the MIC [16] was 1 µg/mL and the MIC [17] was 0.5 µg/mL. The MIC (Enterococcus faecalis) was 32 µg/mL, the MIC (Pseudomonas aeruginosa [2]) was > 64 µg/mL and the MIC (Klebsiella pneumoniae) was 8 µg/mL. For the same compound, the “Ratio ED50” value (Staphylococcus aureus [37]) was 1.5, the MIC [19] was 0.03 µg/mL and the IC50 (DNA gyrase [21]) was 59.7 µM. For the same compound, the Activity [38] was “Non-Toxic”, the MIC (Escherichia coli [22]) was 0.5 µg/mL and the MIC (Staphylococcus aureus [23]) was 2 µg/mL. The LD50 [24] was > 2000 mg/kg, the MIC (Bacillus subtilis) was 2 µg/mL and the LD50 [39] was > 2000 mg/kg. The ED50 (Staphylococcus aureus [3]) was 7.3 mg/kg, the MIC (Micrococcus luteus) was 4 µg/mL and the IC50 (DNA gyrase [26]) was 1460 µM. The MIC [27] was 8 µg/mL, the CC50 at 72 h [4] was 40.3 µg/mL and the Activity [29] was “Non-Toxic”. The Activity (Staphylococcus aureus [40]) was “inactive”, the MIC (Salmonella typhimurium) was 2 µg/mL and the CC50 at 72 h [5] was 30.9 µg/mL. For the same compound, the MIC (Staphylococcus aureus [30]) was 0.5 µg/mL, the MIC (Escherichia coli [32]) was 2 µg/mL and the Activity [41] was “Non-Toxic”. For the same compound, the Activity (Staphylococcus aureus [42]) was “Active” and the Activity [36] was “Non-Toxic”.
